Data: US12070472B2, “Treatment of drug resistant proliferative diseases with telomerase mediated telomere altering compounds” (The Board of Regents of the University of Texas System, priority 2016, dated 2024)

Columns and labels:
BJ-hTERT cells = test: Telomere dysfunction induced foci (TIF) assay in BJ-hTERT cells; type: cell-based, human; settings: 10 μM, after 48 hours
Experimental: (§1) TIFs were quantified using Imaris software.
(§2) Normal BJ cells and […] BJ-hTERT cells were seeded in chamber slides. Following cell attachment, 6-thio-dG (10 μM) and 6-thio-G (10 μM) were added to fresh medium of each cell type. […] A control was used for each cell type as well, where DMSO was added to fresh medium of each cell type. […] These include almost all human cancer cells and certain human diseases involving acute and chronic inflammation.

BJ cells = test: Telomere dysfunction induced foci (TIF) assay in normal BJ cells; type: cell-based, human; settings: 10 μM, after 48 hours
Experimental: as §1, §2

A549 = test: GI 50 determination, A549; type: cell-based; settings: Homo sapiens
Experimental: (§3) Cells of each type listed in Table 2 were seeded in chamber slides.

HCC2429 = test: GI 50 determination, HCC2429; type: cell-based; settings: Homo sapiens
Experimental: as §3

HCC827 = test: GI 50 determination, HCC827; type: cell-based; settings: Homo sapiens
Experimental: as §3

H2009 = test: GI 50 determination, H2009; type: cell-based; settings: Homo sapiens, NCI-H2009
Experimental: as §3

HCT116 cells = test system: HCT116 cells
Experimental: For long-term cellular experiments, HCT116 (1,000 cells/cm^2) and BJ (10,000 cells/cm^2) cells were fed with 6-thio-dG (1, 3, 10 μM) containing medium every three days. The cells were counted and replated every week for 10-16 weeks. Additionally, HCT116 cells (1,000 cells/cm^2) were fed with 6-thio-G (1, 3, 10 μM) every three days and each week cells were counted, collected for TRF (Telomere Restriction Fragment) analysis and replated. HCT116 cells, following treatment with 10 μM 6-thio-dG for 12 weeks, were then treated with a combination of 10 μM 6-thio-dG and 3 μM GRN163L for 2-4 weeks.

telomerase = molecular target: T1, telomerase (Homo sapiens, UniProt O14746); test: Telomerase activity by TRAP assay in treated HCT116 cells; type: cell-based; settings: HCT116 cells treated with 1 and 10 μM every 3 days for 12 weeks
T1 construct: endogenous in cells; host or cells: HCT116 human colon cancer cells (lysate)
T1 sequence (O14746 whole entry): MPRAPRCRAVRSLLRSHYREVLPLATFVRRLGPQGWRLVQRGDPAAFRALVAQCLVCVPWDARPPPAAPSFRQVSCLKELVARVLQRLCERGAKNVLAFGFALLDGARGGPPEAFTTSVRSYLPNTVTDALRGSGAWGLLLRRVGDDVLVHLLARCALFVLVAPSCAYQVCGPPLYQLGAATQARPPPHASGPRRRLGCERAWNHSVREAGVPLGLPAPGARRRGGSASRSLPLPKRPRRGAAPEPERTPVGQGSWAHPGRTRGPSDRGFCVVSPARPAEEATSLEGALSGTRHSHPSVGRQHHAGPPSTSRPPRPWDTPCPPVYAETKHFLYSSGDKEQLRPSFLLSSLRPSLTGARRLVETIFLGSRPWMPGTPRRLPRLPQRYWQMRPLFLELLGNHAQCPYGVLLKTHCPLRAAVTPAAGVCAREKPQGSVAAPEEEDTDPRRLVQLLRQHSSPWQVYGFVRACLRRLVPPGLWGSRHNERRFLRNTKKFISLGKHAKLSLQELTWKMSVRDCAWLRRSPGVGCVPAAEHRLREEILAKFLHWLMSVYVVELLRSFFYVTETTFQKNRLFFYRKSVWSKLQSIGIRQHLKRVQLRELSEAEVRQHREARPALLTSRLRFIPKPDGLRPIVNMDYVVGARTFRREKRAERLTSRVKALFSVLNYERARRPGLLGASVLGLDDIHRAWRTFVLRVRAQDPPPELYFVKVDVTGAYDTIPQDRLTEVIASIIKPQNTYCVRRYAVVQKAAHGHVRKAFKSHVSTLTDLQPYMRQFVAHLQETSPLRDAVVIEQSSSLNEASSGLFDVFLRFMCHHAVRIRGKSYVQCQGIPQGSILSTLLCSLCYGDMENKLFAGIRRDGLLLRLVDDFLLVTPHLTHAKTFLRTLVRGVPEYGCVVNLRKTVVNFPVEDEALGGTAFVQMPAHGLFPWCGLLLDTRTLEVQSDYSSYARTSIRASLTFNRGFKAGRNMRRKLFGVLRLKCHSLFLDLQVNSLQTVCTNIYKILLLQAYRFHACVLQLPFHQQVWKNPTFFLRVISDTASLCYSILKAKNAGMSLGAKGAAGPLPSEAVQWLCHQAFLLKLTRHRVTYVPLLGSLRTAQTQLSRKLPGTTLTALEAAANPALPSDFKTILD
T1 sequence (O60832 whole entry partner): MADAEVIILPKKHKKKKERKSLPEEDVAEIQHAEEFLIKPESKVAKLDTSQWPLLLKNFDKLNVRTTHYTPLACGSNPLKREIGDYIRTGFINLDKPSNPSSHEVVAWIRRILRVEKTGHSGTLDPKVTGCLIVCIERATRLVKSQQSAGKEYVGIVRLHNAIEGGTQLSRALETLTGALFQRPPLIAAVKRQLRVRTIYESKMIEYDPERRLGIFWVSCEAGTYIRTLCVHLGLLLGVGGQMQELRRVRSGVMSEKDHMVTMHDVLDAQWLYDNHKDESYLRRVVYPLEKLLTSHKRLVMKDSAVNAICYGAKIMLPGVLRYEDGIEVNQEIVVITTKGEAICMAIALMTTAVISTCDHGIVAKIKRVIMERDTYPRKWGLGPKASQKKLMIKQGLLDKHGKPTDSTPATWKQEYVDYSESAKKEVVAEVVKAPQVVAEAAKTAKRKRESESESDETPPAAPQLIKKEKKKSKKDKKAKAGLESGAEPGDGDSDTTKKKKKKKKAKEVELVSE
T1 sequence (Q9NY12 whole entry partner): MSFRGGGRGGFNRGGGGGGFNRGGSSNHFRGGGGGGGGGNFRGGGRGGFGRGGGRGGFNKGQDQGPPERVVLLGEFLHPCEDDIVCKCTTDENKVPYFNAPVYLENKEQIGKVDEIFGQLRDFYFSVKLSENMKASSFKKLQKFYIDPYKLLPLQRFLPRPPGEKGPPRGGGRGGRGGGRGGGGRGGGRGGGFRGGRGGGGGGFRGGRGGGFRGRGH
T1 sequence (Q9NX24 whole entry partner): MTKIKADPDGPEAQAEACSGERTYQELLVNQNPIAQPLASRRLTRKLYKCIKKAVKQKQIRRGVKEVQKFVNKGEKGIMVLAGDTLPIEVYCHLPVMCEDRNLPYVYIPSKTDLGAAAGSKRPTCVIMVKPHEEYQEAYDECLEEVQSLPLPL
T1 sequence (Q9NPE3 whole entry partner): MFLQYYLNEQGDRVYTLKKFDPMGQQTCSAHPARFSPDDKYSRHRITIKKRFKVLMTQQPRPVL
T1 sequence (Q9BUR4 whole entry partner): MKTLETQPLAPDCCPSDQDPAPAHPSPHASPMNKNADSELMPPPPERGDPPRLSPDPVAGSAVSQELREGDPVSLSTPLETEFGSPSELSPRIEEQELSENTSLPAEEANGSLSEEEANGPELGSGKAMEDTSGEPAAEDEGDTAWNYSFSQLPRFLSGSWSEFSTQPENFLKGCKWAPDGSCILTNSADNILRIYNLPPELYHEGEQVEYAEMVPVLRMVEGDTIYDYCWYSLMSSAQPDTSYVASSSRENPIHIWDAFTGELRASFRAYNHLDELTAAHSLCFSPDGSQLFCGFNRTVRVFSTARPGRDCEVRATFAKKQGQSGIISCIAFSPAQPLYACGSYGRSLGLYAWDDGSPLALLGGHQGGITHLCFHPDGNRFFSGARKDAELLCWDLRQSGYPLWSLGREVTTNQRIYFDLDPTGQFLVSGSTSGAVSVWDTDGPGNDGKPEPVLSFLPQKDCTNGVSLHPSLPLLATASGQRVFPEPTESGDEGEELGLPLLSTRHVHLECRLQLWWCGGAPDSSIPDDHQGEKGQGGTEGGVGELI
Experimental: Telomerase activity was measured by the TRAP assay (Telomeric Repeat Amplification Protocol as described in Shay J. W. and Bacchetti S., “A survey of telomerase activity in human cancer,” European Journal of Cancer 1997; 33:787-91.). Briefly, HCT116 cells were treated with 1 or 10 μM 6-thio-dG for 1-12 weeks. 1×10^5 cells were collected and lysed with ice-cold NP-40 lysis buffer (10 mM Tris-HCl pH 8.0, 1.0 mM MgCl2, 1 mM EDTA, 1% NP-40, 0.25 mM sodium deoxycholate, 10% glycerol, 150 mM NaCl, 5 mM β-mercaptoethanol) for 30 min. One microliter cellular lysate for 2500 cells was used for each reaction. Hela cells were used as a positive control and lysis buffer was used as a negative control. Samples were prepared and then the telomerase extension products were amplified using PCR (95° C. for 5 min to inactivate telomerase, then 95° C. for 30 sec, 52° C. for 30 sec, 72° C. for 30 sec; 24 cycles). Samples were run on a 10% non-denaturating acrylamide gel and visualized using a Typhoon PhosphorImager scanner system (Molecular Dynamics, GE Healthcare, Piscataway, NJ) that is capable of reading Cy5 fluorescence.

[1] = test system: A549 non-small cell lung cancer cell line; test: CellTitreGlo survival, 7 days, A549; type: cell-based; settings: Homo sapiens, 168 h
Experimental: (§4) Four different cell lines were treated with nine different doses of 6-thio-dG for 7 days. HCT116 colon cancer cell line (FIG. 9A), HCEC1 normal colonic cell line (FIG. 9C), A549 non-small cell lung cancer cell line (FIG. 9B), and BJ normal fibroblast cell line (FIG. 9D) were each treated. Survival fraction was measured by CellTitreGlo luminescent cell viability assay (Promega).

[2] = test system: HCEC1 normal colonic cell line; test: CellTitreGlo survival, 7 days, HCEC1; type: cell-based; settings: Homo sapiens, 168 h
Experimental: as §4

[3] = test system: BJ normal fibroblast cell line; test: CellTitreGlo survival, 7 days, BJ; type: cell-based; settings: Homo sapiens, 168 h
Experimental: as §4

H1693 [4] = test: NSCLC panel sensitivity to 6-thio-dG, H1693; type: cell-based, human
Experimental: (§5) A panel of NSCLC cell lines was tested for sensitivity to 6-thio-dG by performing a cell count after 1 week treatment. Briefly, cells were treated with 3 μM 6-thio-dG every three days for 1 week. Viable cells were counted at the end of treatment. Each 6-thiodG treated cell line was normalized to its DMSO treated control.
(§6) Two isogenic pairs of NSCLC cell lines were studied for sensitization to 6-thio-dG treatment.

H1993 = test: NSCLC panel sensitivity to 6-thio-dG, H1993; type: cell-based, human
Experimental: as §5, §6

H2086 = test: NSCLC panel sensitivity to 6-thio-dG, H2086; type: cell-based, human; settings: 3 μM every three days for 1 week, normalized to DMSO control
Experimental: as §5, with “control. The results of the cell count are depicted in FIG. 12, with the various cell lines arranged in descending resistance to 6-thio-dG from left to right. […] The IC50 values for the whole panel of tested cells are depicted in FIG. 13. The IC50 values for tested cells are depicted as a column scatter graph in FIG. 14.” for “control.”

H1819 = test: NSCLC panel sensitivity to 6-thio-dG, H1819; type: cell-based, human
Experimental: as §5, §6

H2085 = test: NSCLC panel sensitivity to 6-thio-dG, H2085; type: cell-based; settings: Homo sapiens
Experimental: as §5, with “control. The results of the cell count are depicted in FIG. 12, with the various cell lines arranged in descending resistance to 6-thio-dG from left to right. […] The IC50 values for the whole panel of tested cells are depicted in FIG. 13. The IC50 values for tested cells are depicted as a column scatter graph in FIG. 14.” for “control.”

H2126 = test: NSCLC panel sensitivity to 6-thio-dG, H2126; type: cell-based; settings: Homo sapiens, NCI-H2126
Experimental: as §5, with “control. The results of the cell count are depicted in FIG. 12, with the various cell lines arranged in descending resistance to 6-thio-dG from left to right. […] The IC50 values for the whole panel of tested cells are depicted in FIG. 13. The IC50 values for tested cells are depicted as a column scatter graph in FIG. 14.” for “control.”

H324 = test: NSCLC panel sensitivity to 6-thio-dG, H324; type: cell-based; settings: Homo sapiens
Experimental: as §5, with “control. The results of the cell count are depicted in FIG. 12, with the various cell lines arranged in descending resistance to 6-thio-dG from left to right. […] The IC50 values for the whole panel of tested cells are depicted in FIG. 13. The IC50 values for tested cells are depicted as a column scatter graph in FIG. 14.” for “control.”

[5] = test system: paclitaxel/carboplatin resistant H1299; test: 6-thio-dG on paclitaxel/carboplatin resistant H1299, cell count; type: cell-based, human; settings: 1, 3, 10 μM every three days for one week
Experimental: A cell count was performed to measure cell growth/death.

H1693 [6] = test: 6-thio-dG on H1693 parental and paclitaxel/carboplatin resistant lines; type: cell-based, human; settings: 1, 3, 10 μM
Experimental: The resulting resistant lines and their parents were tested for the effect of 6-thio-dG at 1, 3, and 10 μM concentrations.

Q: What does the source list for `Nc1nc2c(ncn2[C@H]2C[C@H](O)[C@@H](CO)O2)c(=S)[nH]1` [6-thio-dG, 6-thio-2′-deoxyguanosine]?
A: >4 TIFs per nucleus background subtracted (BJ-hTERT cells): 14; >4 TIFs per nucleus background subtracted (BJ cells): 2; GI50 (A549): 2100 nM; GI50 (HCC2429): 600 nM; GI50 (HCC827): 800 nM; GI50 (H2009): 2600 nM; telomere shortening (TRF) (HCT116 cells; 1 μM or 10 μM every 3 days, 12 weeks): dramatic telomere shortening; telomere length on continued treatment (TRF) (HCT116 cells; 10 μM 6-thio-dG for 12 weeks, continued to 16 weeks): exhibited stablized telomeres; acquisition of resistance (cell growth) (HCT116 cells; 1, 3, 10 μM, weekly over 10 weeks): begin to acquire resistance to the treatment by the third week; telomere length after drug removal (TRF) (HCT116 cells; 12 weeks 6-thio-dG, then normal medium without drug 2-4 weeks): remained about the same as after 12 week of 6-thio-dG treatment; inhibition of telomerase activity (TRAP) (telomerase): no inhibition of telomerase activity was observed; IC50 [1]: 2400 nM; IC50 [2]: > 100 µM; IC50 [3]: > 100 µM; survival rate (H1693 [4]; H1693, 3 μM every three days for 1 week, normalized to DMSO control): greater than 50%; IC50 (H1693 [4]; Homo sapiens, NCI-H1693): > 100 µM; survival rate (H1993; H1993, 3 μM every three days for 1 week, normalized to DMSO control): greater than 50%; IC50 (H1993; Homo sapiens, NCI-H1993): > 100 µM; survival rate (H2086): greater than 50%; survival rate (H1819; H1819, 3 μM every three days for 1 week, normalized to DMSO control): greater than 50%; IC50 (H1819; Homo sapiens, NCI-H1819): > 100 µM; IC50 (H2085): 3 to 7 µM; IC50 (H2126): 3 to 7 µM; IC50 (H324): 2200 nM; sensitivity (cell count) [5]: sensitive to all three concentrations; sensitivity (H1693 [6]): resistant to 6-thio-dG
